Experimental findings from ChEMBL document CHEMBL6114979, “Discovery of 3-indolylbenzoquinone derivatives with therapeutic potential for breast cancer” (Bioorg Med Chem, 2025) are described below.

pIC50: −log10 of the molar value. Converted amounts (≈) assume the structure as drawn. Counter-ions that a name gives are not always drawn.

Series [1] relates to A549. Nature of the series: Antiproliferative activity against human A549 cells assessed as inhibition of cell proliferation incubated for 48 hrs by CCK-8 assay. The class given is functional, cell-based. As to conditions: A549, 48 h. Background: Formazan colour is commonly taken as a measure of viable cells.
Series [2] deals with HepG2. Nature of the series: Antiproliferative activity against human HepG2 cells assessed as inhibition of cell proliferation incubated for 48 hrs by CCK-8 assay. The note with it: HepG2, 48 h. The series is classed as functional, cell-based.
For series [3], the system named is MDA-MB-231. Nature of the series: Antiproliferative activity against human MDA-MB-231 cells assessed as inhibition of cell proliferation incubated for 48 hrs by CCK-8 assay. As to conditions: MDA-MB-231, 48 h. The series is classed as functional, cell-based.
Series [4] can be described thus: Toxicity in female Balb/c mouse implanted with mouse 4T1 cells assessed as appearance of tumor metastasis in spleen at 10 mg/kg, ip administered once every 2 days for 14 days by H and E staining based analysis. The class given is organism-based. The note with it: in vivo, 336 h, time 14 day.
A short description of series [5]: Toxicity in female Balb/c mouse implanted with mouse 4T1 cells assessed as appearance of spleen wrinkling at 10 mg/kg, ip administered once every 2 days for 14 days. The series is classed as organism-based. The note with it: in vivo, 48 h, time 2 day.
A short description of series [6]: Toxicity in female Balb/c mouse implanted with mouse 4T1 cells assessed as appearance of tumor metastasis in lung at 10 mg/kg, ip administered once every 2 days for 14 days by H and E staining based analysis. The class given is organism-based. The note with it: in vivo, 336 h, time 14 day.
Series [7] can be described thus: Toxicity in female Balb/c mouse implanted with mouse 4T1 cells assessed as appearance of tumor metastasis in liver at 10 mg/kg, ip administered once every 2 days for 14 days by H and E staining based analysis. The note with it: in vivo, 336 h, time 14 day. The class given is organism-based.
The nature of series [8]: Toxicity in female Balb/c mouse implanted with mouse 4T1 cells assessed as appearance of tumor metastasis in kidney at 10 mg/kg, ip administered once every 2 days for 14 days by H and E staining based analysis. The series is classed as organism-based. As to conditions: in vivo, 336 h, time 14 day.
The nature of series [9]: Toxicity in female Balb/c mouse implanted with mouse 4T1 cells assessed as appearance of infiltered tumor cells in adipose tissue at 10 mg/kg, ip administered once every 2 days for 14 days by H and E staining based analysis. The series is classed as organism-based. As to conditions: in vivo, 336 h, time 14 day.
Series [10] is described as follows: Toxicity in female Balb/c mouse implanted with mouse 4T1 cells assessed as change in body weight at 10 mg/kg, ip administered every 2 days. The class given is organism-based. As to conditions: in vivo, 48 h.
Series [11] can be described thus: Toxicity in female Balb/c mouse implanted with mouse 4T1 cells assessed as appearance of irregular necrotic foci in tumor area at 10 mg/kg, ip administered once every 2 days for 14 days by H and E staining based analysis. The class given is organism-based. As to conditions: in vivo, 336 h, time 14 day.
Series [12] has as its system MDA-MB-231. Nature of the series: Induction of cell cycle arrest in human MDA-MB-231 cells assessed as accumulation of cells at G0/G1 phase at 1 uM incubated for 24 hrs by PI staining based flow cytometric analysis (reference value: 57.31%). The series is classed as functional.
Series [13] concerns MDA-MB-231. Description: Induction of apoptosis in human MDA-MB-231 cells assessed as early apoptotic cells at 1 uM incubated for 24 hrs by Annexin-V/PI staining based flow cytometric analysis (reference value: 2.69%). The series is classed as functional. In general terms: Flow cytometry measures light scatter and fluorescence of single cells or particles in a stream.
In series [14] the test system is MDA-MB-231. Nature of the series: Induction of cell cycle arrest in human MDA-MB-231 cells assessed as accumulation of cells at S phase at 1 uM incubated for 24 hrs by PI staining based flow cytometric analysis (reference value: 8.71%). The series is classed as functional.
Series [15] relates to MDA-MB-231. Nature of the series: Induction of apoptosis in human MDA-MB-231 cells assessed as viable cells at 1 uM incubated for 24 hrs by Annexin-V/PI staining based flow cytometric analysis (reference value: 93.37%). The series is classed as functional. As to conditions: read-out: Activity.
In series [16] the test system is MDA-MB-231. Description: Induction of apoptosis in human MDA-MB-231 cells assessed as necrotic cells at 1 uM incubated for 24 hrs by Annexin-V/PI staining based flow cytometric analysis (reference value: 0.71%). The series is classed as functional.
The test system of series [17] is MDA-MB-231. Description: Induction of apoptosis in human MDA-MB-231 cells assessed as late apoptotic cells at 1 uM incubated for 24 hrs by Annexin-V/PI staining based flow cytometric analysis (reference value: 3.24%). The series is classed as functional.
The test system of series [18] is MDA-MB-231. Description: Induction of cell cycle arrest in human MDA-MB-231 cells assessed as accumulation of cells at G2/M phase at 1 uM incubated for 24 hrs by PI staining based flow cytometric analysis (reference value: 33.98%). The class given is functional.
A short description of series [19]: Solubility of compound in 0.1 M HCL. The series is classed as physicochemical.
Series [20] in a line: Solubility of compound in water. The class given is physicochemical.

Regarding `Cc1[nH]c2ccccc2c1C1=C(F)C(=O)C(F)=C(NC2CC2)C1=O`, the pIC50 (usually −log10 of the IC50, conventionally taken in molar units) was 5.35 in series [1], 4.98 in [2] and 5.10 in series [3].
Taken in the same sequence, the figures for `Cc1[nH]c2ccccc2c1C1=C(N2CCOCC2)C(=O)C(F)=C(N2CCOCC2)C1=O` were 4.81, 4.79 and 5.09.
Regarding `Cc1[nH]c2ccccc2c1C1=C(F)C(=O)C(F)=C(N2CCN(C=O)CC2)C1=O`, the pIC50 in series [1] is 4.28; in [2], 5.27; in [3], 5.10.
Consider `Cc1[nH]c2ccccc2c1C1=C(N2CCN(C=O)CC2)C(=O)C(F)=C(N2CCN(C=O)CC2)C1=O`, for which the figures for the pIC50 in series [1], in series [2] and in [3] were 4.92, 5.09 and 5.13, respectively.
Taken in the same sequence, the figures for `Cc1[nH]c2ccccc2c1C1=C(F)C(=O)C(F)=C(NCCNC(=O)OC(C)(C)C)C1=O` were 5.32, 5.31 and 5.14.
For `Cc1[nH]c2ccccc2c1C1=C(N2CCCCC2)C(=O)C(F)=C(N2CCCCC2)C1=O`, the pIC50 is 5.17 in series [1], 5.37 in series [2] and 5.36 in series [3].
The like results for `Cc1[nH]c2ccccc2c1C1=C(F)C(=O)C(F)=C(N2CCNCC2)C1=O` were, in that order, 4.90, 5.09 and 5.33.
With `COC(=O)/C=C/C(=O)OCCNC1=C(F)C(=O)C(c2c(C)[nH]c3ccccc23)=C(F)C1=O`, the pIC50 in series [1] is 5.20; in [2] it was 4.60; in series [3], 5.19.
As to `C#CCNC1=C(F)C(=O)C(F)=C(c2c(C)[nH]c3ccccc23)C1=O`, the pIC50 in series [1] was less than 4.00; in [2], 5.19; in series [3], 5.21.
Taken in the same sequence, the figures for `Cc1[nH]c2ccccc2c1C1=C(NC2CC2)C(=O)C(F)=C(NC2CC2)C1=O` were 5.31, 5.38 and 5.26.
For the molecule `COC(=O)/C=C/C(=O)OCCCN1CCN(C2=C(F)C(=O)C(F)=C(c3c(C)[nH]c4ccccc34)C2=O)CC1`, the pIC50 in series [1] was 5.17; in series [2], 5.34; in series [3], 5.16.
In the case of `COc1cccc2c1C(=O)c1c(O)c3c(c(O)c1C2=O)C[C@@](O)(C(=O)CO)C[C@@H]3O[C@H]1C[C@H](N)[C@H](O)[C@H](C)O1` [DOXORUBICIN HYDROCHLORIDE], the Activity entry in [4], in series [5], in [6], in series [7], in series [8] and in [9] was “Toxic” in each case. Further, the Activity entry in series [10] and in [11] was “Toxic” throughout. In addition, the pIC50 was 6.52 in series [1] and 5.63 in series [3].
As to `COC(=O)/C=C/C(=O)OCCCN1CCN(C2=C(F)C(=O)C(c3c(C)[nH]c4ccccc34)=C(N3CCN(CCCOC(=O)/C=C/C(=O)OC)CC3)C2=O)CC1`, the pIC50 in [1] was less than 4.00; in series [2], 4.21; in series [3], 4.87.
For `COc1ccc(/C=C\c2cc(OC)c(OC)c(OC)c2)cc1O` [COMBRETASTATIN A4], the Activity was found to be 39.37% in [12]; 10.22% in series [13]; 9.19% in series [14]; 1.55% in [16]; 8.43% in series [17]; 55.89% in [18]. Moreover, the viability at 1 µM in series [15] worked out at 79.8%.
Take `Cc1[nH]c2ccccc2c1C1=C(Cl)C(=O)C(Cl)=C(N2CCOCC2)C1=O`: the solubility (in general, the dissolved amount per volume that the medium holds) in series [19] came to 6 µg/mL (≈ 15.3 µM); in [20] it was 9 µg/mL (≈ 23 µM).
Regarding `Cc1[nH]c2ccccc2c1C1=C(F)C(=O)C(c2c(C)[nH]c3ccccc23)=C(F)C1=O`, the pIC50 in series [1] is 4.80; in [2], 4.95; in series [3], 4.97.
The like results for `Cc1[nH]c2ccccc2c1C1=C(F)C(=O)C(F)=C(N2CCCCC2)C1=O` were, in that order, 4.48, 4.84 and 5.08.
Taken in the same sequence, the figures for `Cc1[nH]c2ccccc2c1C1=C(NCCNC(=O)OC(C)(C)C)C(=O)C(F)=C(NCCNC(=O)OC(C)(C)C)C1=O` were 4.86, 4.88 and 4.99.
The like results for `C#CCNC1=C(F)C(=O)C(NCC#C)=C(c2c(C)[nH]c3ccccc23)C1=O` were, in that order, 5.28, 4.85 and 4.81.
For `C#CCNC1=C(F)C(=O)C(c2c(C)[nH]c3ccccc23)=C(F)C1=O`, the pIC50 was less than 4.00 in [1], 4.30 in series [2] and 5.11 in [3].
As to `Cc1[nH]c2ccccc2c1C1=C(F)C(=O)C(N2CCOCC2)=C(F)C1=O`, the results for the pIC50 in series [1], in series [2] and in series [3] were 4.85, 5.11 and 5.37, respectively.
The like results for `Cc1[nH]c2ccccc2c1C1=C(F)C(=O)C(c2c(C)[nH]c3ccccc23)=C(N2CCOCC2)C1=O` were, in that order, 4.99, 4.91 and 5.05.
Taken in the same sequence, the figures for `COC(=O)/C=C/OCCNC1=C(F)C(=O)C(c2c(C)[nH]c3ccccc23)=C(NCCOC(=O)/C=C/C(=O)OC)C1=O` were 5.15, 5.35 and 4.92.
On to `Cc1[nH]c2ccccc2c1C1=C(N2CCOCC2)C(=O)C(c2c(C)[nH]c3ccccc23)=C(N2CCOCC2)C1=O`, for which the pIC50 was 4.97 in [1], 4.95 in series [2] and less than 4.00 in series [3].
Taken in the same sequence, the figures for `Cc1[nH]c2ccccc2c1C1=C(F)C(=O)C(F)=C(F)C1=O` were 4.85, 4.91 and 5.07.
